Assay results taken from patent US12349973B2 (priority 2019, dated 2025).

Experiments:
[1] = tested on: pupil light response / muscarinic receptors within the iris; parameters: species or system human; details: in vivo
[2] = target: human iris muscarinic receptors; details: cited from earlier work
[3] = tested on: muscarinic receptors within the eye; details: in vivo; cited from earlier work
[4] = tested on: accommodation control system / ciliary body muscarinic receptors; details: in vivo

Compound	baseline difference in pupil size [1] [mm]	estimated level of receptor blockade 1-(V400post/V400pre) [1] [%]	peak difference in pupil constriction (light response) [1] [mm]	apparent dissociation constant KA [2] [nM]	duration of effects [3] [days]	duration of pupil dilatation and paralysis of accommodation [3]	ability to accommodate ([4]; human)	mean increase in the AC/A ratio over baseline [4] [%]	receptoral blockade suggested by AC/A increase [4] [%]
CN1[C@@H]2CC[C@H]1C[C@@H](OC(=O)C(CO)c1ccccc1)C2 (stereo partly drawn) [atropine]	0.6	35	1.6	0.4 to 0.7	6 to 12	up to 7 days	–	–	–
CN(C)CCOC(=O)C(c1ccccc1)C1(O)CCCC1 (stereo not drawn) [cyclopentolate]	–	–	–	–	–	–	maintained the ability to accommodate sufficiently to read at 33 cm	173	42
